According to patent US20260256794A1, “Oral Dynamine Formulations and Methods Therefor” (Ortho-Nutra, LLC, priority 2023, published 2026):

Tested on: subjects
Assay: VAS-Drive
Format: in vivo, human
Set-up: VAS-Drive rating, Mean / VAS-Drive changes from baseline, Mean Difference ± SE: scale not given here; VAS-Drive area under the curve, Mean Difference ± SE / VAS-Drive area under the curve, Mean: unit not given here
Experimental: The inventors have discovered various compositions and methods of improving various indices of neurological and neuroenergetic functions by administering 100 mg (once daily) dosages of DYNAMINE™ (dosage between 1.0 and 1.4 mg/kg) as described in the following:
All neuroenergetic tests as listed below were performed and data were collected after 0 and 4 days of assigned supplements (with acute effects also measured at day 4 over 180 minutes):
All VAS Measurement (Energy, Sustained Energy, Mental Stamina, Ability to Focus, Ability to Concentrate, Motivation to Accomplish Difficult Tasks, Drive, Vigor, Level of Positive Outlook, Mood, Feelings of Well-Being, Tolerate Stress); Day 0: Two tests were completed. The average of both scores was computed and this value was used in all statistical analysis. Day 4 (0 minutes after ingesting dose #4): Two tests were completed. The average of both scores was computed and this value was used in all statistical analysis. Day 4 (60, 120, and 180 minutes after ingesting dose #4): One test was completed at each time point.
Neuroenergic parameters are inherently subjective, nevertheless significant in human behavior and well-being. To allow for a standardization among different subjects, the following experiments were performed using a visual analog scale using anchor statements (lowest possible/highest possible) in which subjects were asked to rate their subjective experience with respect to the specific neuroenergic parameters tested.
VAS-Drive: In this subjective test, subjects were asked to rate their personal level of energy on a VAS scale using the prompt of “My drive right now is . . . ” (with rating lowest possible to highest possible)”. Results were collected as noted above and Table 22 provides exemplary results for Day 0 versus Day 4 ratings, whereas Table 23 provides exemplary acute results measured at Day 4 over a duration of 180 minutes.

[1] = 100 mg once daily, Day 4, 0-180 min, vs Group A (placebo)
[2] = 100 mg once daily, Day 4, 60 min-0 min, vs Group A (placebo)
[3] = 100 mg once daily, Day 4, 120 min-0 min, vs Group A (placebo)
[4] = 100 mg once daily, Day 4, 180 min-0 min, vs Group A (placebo)

COc1nc2c(c(=O)n1C)n(C)c(=O)n2C [methylliberine, 2-methoxy-1,7,9-trimethylpurine-6,8-dione]
VAS-Drive area under the curve, Mean (100 mg once daily, Day 4, 0-180 min): 1110
VAS-Drive area under the curve, Mean Difference ± SE [1]: 20.4 ± 37.8
VAS-Drive area under the curve, effect size d [1]: 0.06
VAS-Drive rating, Mean (100 mg once daily, Day 4, 0 min after dose #4): 5.9
VAS-Drive changes from baseline, Mean Difference ± SE [2]: −0.06 ± 0.27
VAS-Drive changes from baseline, effect size d [2]: −0.07
VAS-Drive rating, Mean (100 mg once daily, Day 4, 60 min after dose #4): 6.1
VAS-Drive changes from baseline, Mean Difference ± SE [3]: −0.16 ± 0.28
VAS-Drive changes from baseline, effect size d [3]: −0.15
VAS-Drive rating, Mean (100 mg once daily, Day 4, 120 min after dose #4): 6.2
VAS-Drive changes from baseline, Mean Difference ± SE [4]: 0.33 ± 0.35
VAS-Drive changes from baseline, effect size d [4]: 0.26
VAS-Drive rating, Mean (100 mg once daily, Day 4, 180 min after dose #4): 6.4
VAS-Drive rating, Mean (Day 0 (before supplementation)): 5.8
